Test results reported in US12570648B2, “6,7-dihydro-5H-pyrido[2,3-c]pyridazine derivatives and related compounds as Bcl-xL protein inhibitors and pro-apoptotic agents for treating cancer” (LES LABORATOIRES SERVIER, priority 2019, dated 2026).

What was measured:
Molt-4 = conditions: xenograft model Molt-4; cited from earlier work
[1] = system: pre-clinical models of T-ALL and different types of solid tumors; conditions: cited from earlier work
[2] = target: His-His-(EK)-hsBCLXL(2-197)[N197C] (Homo sapiens (Human), UniProt Q07817, N197C); assay: Fluorescence quenching assay; format: binding; conditions: 1 nM Cy5-labelled protein, 400 nM PUMA peptide, 2 hours at 23° C.; KI determined from IC50
Outline: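 Ki values converted from IC50s, measured as fluorescence increase (Ex 620/Em 680 nm) after 2 h at 23° C. Compounds were titrated over 11 points against 1 nM Cy5-BCL-xL and 400 nM quencher-tagged PUMA peptide in pH 7.4 HEPES (10 mM), 150 mM NaCl, 0.05% Tween 20, 5% DMSO.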

MOLT-4 cells = assay: MOLT-4 cell viability using MTT assay; format: cell-based; conditions: Homo sapiens, MOLT-4, 48 h, 48 h exposure
Procedure: MTT colorimetric assay is based on the mitochondrial reduction of tetrazolium salt by living cells.
Cells were cultured at 37° C. in a humidified atmosphere containing 5% CO2. […] At the end of incubation time, 15 μL of MTT solution (5 mg/ml) were added per well and the cells were incubated for another 4 h. […] IC50s were calculated using standard four-parametric curve fitting.

H146 cells = assay: H146 cell viability using MTT assay; format: cell-based; conditions: Homo sapiens, NCI-H146, 48 h exposure
Outline: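 IC50 comes from four-parameter fits of optical density at 540 nm. Readout used 4 h MTT reduction followed by overnight SDS/HCl solubilisation, after 48 h compound exposure across nine 3.16-fold dilutions in triplicate. Culture medium was RPMI 1640 with 10% heat-inactivated FBS, antibiotics and L-glutamine.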

[3] = target: GST(1-218)-(FACTOR_XA)-hsBCLXL(2-209) (Homo sapiens (Human), UniProt Q07817); assay: Fluorescence polarisation assay; format: binding
Procedure: Fluorescence polarization measures the rotation of a fluorescing species in solution, the larger the molecule the more polarized the fluorescence emission.
(GST UniProtKB® primary accession number P08515 and BCLXL UniProtKB® primary accession number Q07817-1), • resulting in an increase in anisotropy. If a compound is added which competitively binds to the same site as the probe, thereby releasing it, anisotropy decreases due to the increased amount of free probe.
An 11-point serial dilution of each compound was prepared in DMSO, the final buffer conditions were 10 mM 4-(2-hydroxyethyl)-1-piperazineethanesulfonic acid [HEPES], 150 mM NaCl, 0.05% Tween 20, pH 7.4 and 5% DMSO. The final protein concentration in the assay was 20 nM with the fluorescent probe present at 10 nM. […] 1; 37 (WebServer issue): W441-W445.

MOLT-4 xenografts = assay: Tumor regression study in MOLT-4 xenografts; format: in vivo, female NOD SCID mice; conditions: 5 mg/kg IV
Procedure: The in vivo therapeutic and pharmacodynamic effects of Bcl-xL-targeting small molecules were determined in MOLT-4 T-cell Acute Lymphoblastic Leukemia (T-ALL) model upon intravenous (IV) or oral (PO) administration.
MOLT-4 cells (ATCC No. CRL-1582) were cultured in RPMI supplemented with 10% FBS. Cells were re-suspended in 50% matrigel (BD Biosciences) and 0.1 mL containing 5×10^6 cells was subcutaneously inoculated into the right flank of female NOD SCID mice (Charles River). For efficacy studies, when tumors reached the appropriate volume, mice were randomized (7 animals per group) using Easy stat software. […] Mice body weight was monitored three times a week and tumor size was measured using electronic calipers. Tumor volume was estimated by measuring the minimum and maximum tumor diameters using the formula: (minimum diameter)^2(maximum diameter)/2. The last day with at least half of control animals still present in the study (day 31), tumor growth inhibition was calculated using the formula: […]
Response was evaluated as follows: CR (Complete Response) if tumor size was <25 mm^3 for at least three consecutive measurements, PR (Partial Response) if tumor size was comprised between 25 mm^3 and half of the starting size for at least three consecutive measurements. Mice were sacrificed at the first measurement for which tumor volume exceeded 2000 mm^3 or at the first signs of animal health deterioration.

circulating platelets = assay: Pharmacodynamics: circulating platelets in MOLT-4-grafted mice; format: in vivo, female NOD SCID mice; conditions: after treatment discontinuation (data not shown)
Procedure: For pharmacodynamics studies, when tumors reached the appropriate volume, mice were randomized (3 animals per group) using Easy stat software. […] Tumor samples were collected 6 h after dosing and lysed (10 mM HEPES pH 7.4, 142.5 mM KCl, 5 mM MgCl2, 1 mM EDTA, 1% NP40, protease and phosphatase inhibitors cocktails—Calbiochem). Cleared lysates were prepared for immunodetection of cleaved PARP and Caspase 3 by using the MSD apoptosis panel whole cell lysate kit (MSD) in 96-well plates according to manufacturer's instructions, and were analyzed on the QuickPlex SQ 120. Whole blood samples were analyzed on the Hematology Analyzer Coulter Ac⋅T diff (Beckman Coulter).

[4] = system: T-ALL patient derived xenograft models; conditions: cited from earlier work
lymphoid malignancies = conditions: clinical studies; cited from earlier work
lymphocyte proliferation = conditions: in vitro; cited from earlier work
[5] = system: animal models of arthritis and lupus; conditions: mice; cited from earlier work
allogeneic T-cell = conditions: in vitro; cited from earlier work

Chain of His-His-(EK)-hsBCLXL(2-197)[N197C] (Q07817 2-197 N197C): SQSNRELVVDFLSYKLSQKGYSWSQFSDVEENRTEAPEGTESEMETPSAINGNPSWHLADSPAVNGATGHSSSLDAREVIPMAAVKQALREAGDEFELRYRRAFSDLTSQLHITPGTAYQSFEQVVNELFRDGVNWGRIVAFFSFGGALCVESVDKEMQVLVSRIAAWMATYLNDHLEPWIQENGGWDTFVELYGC
Chain of GST(1-218)-(FACTOR_XA)-hsBCLXL(2-209) (Q07817 other isoform, or with tags, fused parts or gaps): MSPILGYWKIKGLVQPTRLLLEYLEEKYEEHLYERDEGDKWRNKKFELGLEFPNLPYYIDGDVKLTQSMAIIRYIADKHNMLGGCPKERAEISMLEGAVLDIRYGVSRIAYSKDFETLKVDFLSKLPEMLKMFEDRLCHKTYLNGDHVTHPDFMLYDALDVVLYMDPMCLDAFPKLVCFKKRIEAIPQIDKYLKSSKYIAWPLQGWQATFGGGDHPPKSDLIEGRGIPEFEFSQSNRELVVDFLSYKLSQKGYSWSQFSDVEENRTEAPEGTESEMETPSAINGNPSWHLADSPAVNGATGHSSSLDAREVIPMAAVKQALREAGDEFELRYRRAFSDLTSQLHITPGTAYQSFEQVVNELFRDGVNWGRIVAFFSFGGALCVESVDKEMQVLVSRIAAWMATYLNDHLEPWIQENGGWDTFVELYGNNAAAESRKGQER

| Ki [2] [nM] | IC50 (MOLT-4 cells) [nM] | IC50 (H146 cells) [nM] | Ki [3] [nM] | Compound | also measured |
| --- | --- | --- | --- | --- | --- |
| – | – | – | – | Cc1c(-c2ccc(N3CCc4cccc(C(=O)Nc5nc6ccccc6s5)c4C3)nc2C(=O)O)cnn1CC12CC3CC(CC(C3)C1)C2 [Example A-1331852] | in vitro and in vivo activity (Molt-4): in vitro and in vivo activity; in vivo activity [1]: exhibited in vivo activity |
| 0.051 | 0.948 | 2.77 | 1.1 | Cc1c(Nc2nc3ccccc3s2)nnc2c1ccn2-c1ccc(-c2cnn(CC34CC5CC(CC(C5)C3)C4)c2C)c(C(=O)O)n1 [Example 23] | – |
| 0.0036 | 0.775 | 6.55 | < 1 | CN(C)CC#Cc1ccc(OCCCc2sc(N3CCCc4c3nnc(Nc3nc5ccccc5s3)c4C3CC3)nc2C(=O)O)c(F)c1 [Example 30, 2-{3-[(1,3-Benzothiazol-2-yl)amino]-4-cyclopropyl-5H,6H,7H,8H-pyrido[2,3-c]pyridazin-8-yl}-5-(3-{4-[3-(dimethylamino)prop-1-yn-1-yl]-2-fluorophenoxy}propyl)-1,3-thiazole-4-carboxylic acid] | – |
| 0.008 | – | 32.7 | < 1 | Cc1c(Nc2nc3ccccc3s2)nnc2c1CCCN2c1ccc(-c2cnn(CC34CC5CC(CC(C5)C3)C4)c2C)c(C(=O)O)n1 [Example 24] | % CR (MOLT-4 xenografts; Q3D6): 0%; % PR (MOLT-4 xenografts; Q3D6): 71.4%; % TGI (d31) (MOLT-4 xenografts; Q3D6, day 31): 78.7%; platelets loss recovery (circulating platelets): platelets loss was recovered after treatment discontinuation |
| 0.025 | 3.42 | 12.7 | 3 | Cc1c(Nc2nc3ccccc3s2)nnc2c1CCN2c1nc(C(=O)O)c(CCCOc2ccc(C#CCN(C)C)cc2F)s1 [Example 22, 2-{3-[(1,3-Benzothiazol-2-yl)amino]-4-methyl-5H,6H,7H-pyrrolo[2,3-c]pyridazin-7-yl}-5-(3-{4-[3-(dimethylamino)prop-1-yn-1-yl]-2-fluorophenoxy}propyl)-1,3-thiazole-4-carboxylic acid] | – |
| – | – | – | – | CN(C)CC#Cc1ccc(OCCCc2sc(N3CCc4cccc(C(=O)Nc5nc6ccccc6s5)c4C3)nc2C(=O)O)c(F)c1 [Example A-1155463] | in vivo activity [1]: exhibited in vivo activity |
| 0.0082 | 14.8 | 88.2 | < 1 | Cc1c(Nc2nc3ccccc3s2)nnc2c1CCCCN2c1nc(C(=O)O)c(CCCOc2ccc(C#CCN(C)C)cc2F)s1 [Example 31, 2-{3-[(1,3-Benzothiazol-2-yl)amino]-4-methyl-5H,6H,7H,8H,9H-pyridazino[3,4-b]azepin-9-yl}-5-(3-{4-[3-(dimethylamino)prop-1-yn-1-yl]-2-fluorophenoxy}propyl)-1,3-thiazole-4-carboxylic acid] | – |
| – | – | – | – | CC1(C)CCC(c2ccc(Cl)cc2)=C(CN2CCN(c3ccc(C(=O)NS(=O)(=O)c4ccc(N[C@H](CCN5CCOCC5)CSc5ccccc5)c(S(=O)(=O)C(F)(F)F)c4)cc3)CC2)C1 [ABT-263] | activity [4]: promising activity; antitumor activity (lymphoid malignancies): objective antitumor activity |
| 0.0077 | 30.2 | 62.8 | < 1 | Cc1c(Nc2nc3ccccc3s2)nnc2c1CCCN2c1nc(C(=O)O)c(CCCOc2ccc(CN)cc2F)s1 [Example 35, 5-{3-[4-(Aminomethyl)-2-fluorophenoxy]propyl}-2-{3-[(1,3-benzothiazol-2-yl)amino]-4-methyl-5H,6H,7H,8H-pyrido[2,3-c]pyridazin-8-yl}-1,3-thiazole-4-carboxylic acid] | – |
| 0.0085 | – | 6.53 | < 1 | Cc1c(Nc2nc3ccccc3s2)nnc2c1CCCN2c1nc(C(=O)O)c(CCCOc2ccc(C#CCN(C)C)cc2F)s1 [Example 27, 2-[3-(1,3-Benzothiazol-2-ylamino)-4-methyl-6,7-dihydro-5H-pyrido[2,3-c]pyridazin-8-yl]-5-[3-[4-[3-(dimethylamino)prop-1-ynyl]-2-fluoro-phenoxy]propyl]thiazole-4-carboxylic acid] | – |
| – | – | – | – | CN(C)CC[C@H](CSc1ccccc1)Nc1ccc(S(=O)(=O)NC(=O)c2ccc(N3CCN(Cc4ccccc4-c4ccc(Cl)cc4)CC3)cc2)cc1[N+](=O)[O-] [ABT-737] | activity [4]: promising activity; lymphocyte proliferation (lymphocyte proliferation): potent inhibition of lymphocyte proliferation; disease severity [5]: significant decrease in disease severity; allogeneic T-cell activation, proliferation, and cytotoxicity (allogeneic T-cell): prevented allogeneic T-cell activation, proliferation, and cytotoxicity |
